Source: paper PMC11349198, “The activation cascade of the broad-spectrum antiviral bemnifosbuvir characterized at atomic resolution” (PLOS Biology, 2024)

Legend:
ADALP1 = molecular target: T1, ADALP1 (Homo sapiens, UniProt Q6DHV7); test: X-ray crystal structure, […] Å; type: binding; conditions: co-crystallized with AT-8003 (10 mM), pH 5.3 to 6.3; Zn2+; active site
T1 construct: gene MAPDA; N-terminal 6xHis with TEV site, tag cut; E. coli; monomer; Zn; crystals grown with trace alpha-chymotrypsin
T1 sequence (Q6DHV7 1-355): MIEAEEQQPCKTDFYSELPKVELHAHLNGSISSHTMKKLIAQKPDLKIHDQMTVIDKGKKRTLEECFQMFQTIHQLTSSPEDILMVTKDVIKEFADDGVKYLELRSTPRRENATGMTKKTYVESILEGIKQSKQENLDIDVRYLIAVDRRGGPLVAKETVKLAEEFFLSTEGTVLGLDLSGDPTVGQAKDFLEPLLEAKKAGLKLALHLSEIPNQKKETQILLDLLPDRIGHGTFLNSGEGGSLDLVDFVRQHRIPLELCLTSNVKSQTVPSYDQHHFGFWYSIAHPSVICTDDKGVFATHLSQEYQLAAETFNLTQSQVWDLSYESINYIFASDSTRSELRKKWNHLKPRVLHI

HINT1 = molecular target: T2, HINT1 (Homo sapiens, UniProt P49773); test: ITC; type: binding; conditions: 1-site model
T2 construct: N-terminal 6xHis with TEV site, tag cut; E. coli; homodimer, 126 residues visible
T2 sequence (P49773 whole entry): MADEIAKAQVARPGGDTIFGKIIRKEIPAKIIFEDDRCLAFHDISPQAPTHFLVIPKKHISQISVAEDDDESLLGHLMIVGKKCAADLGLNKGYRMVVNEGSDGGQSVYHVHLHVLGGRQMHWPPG

Row | Structure (SMILES) | X-ray crystal structure, 2.44 Å (ADALP1) | Ka (HINT1)
1 | C[C@@]1(F)[C@H](O)[C@@H](COP(=O)(O)O)O[C@H]1n1cnc2c(=O)[nH]c(N)nc21 [AT-8001] | the product AT-8001 was found bound at the active site | 
2 | Nc1ncnc2c1ncn2[C@@H]1O[C@H](COP(=O)(O)O)[C@@H](O)[C@H]1O [AMP] |  | 1.7 10^4
